The values that follow come from the supplement of paper PMC12076712.

Some results are limits rather than exact numbers.

Common to all, as to assay: pIC50, kinobeads binding competition
The target of one test is MAP4K4 (UniProt O95819). A digest of the protocol:
(§1)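 To obtain pIC50, fold changes versus vehicle were fitted to logistic dose-response curves (R drc package) across biological duplicates. Protein binding to Kinobeads was quantified by TMT10 LC-MS/MS of digested bead-bound proteins. Treatments used nine concentrations with a top of 30 μM, applied to live Jurkat cells in 1:4 steps for 60 min at 37 °C before lysis, or to Jurkat lysate or a 1:1:1:1 HEK293/K-562/HepG2/placenta lysate mix in 1:5 steps for 60 min at 4 °C.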

For a further test, the target named is UniProt P48730. Summed up:
as §1

The next test addresses UniProt Q05397. Summed up:
as §1

For a further test, the target named is UniProt Q9NYV4. A digest of the protocol: as §1
UniProt Q9NYV4, sequence (Q9NYV4 whole entry, looked up): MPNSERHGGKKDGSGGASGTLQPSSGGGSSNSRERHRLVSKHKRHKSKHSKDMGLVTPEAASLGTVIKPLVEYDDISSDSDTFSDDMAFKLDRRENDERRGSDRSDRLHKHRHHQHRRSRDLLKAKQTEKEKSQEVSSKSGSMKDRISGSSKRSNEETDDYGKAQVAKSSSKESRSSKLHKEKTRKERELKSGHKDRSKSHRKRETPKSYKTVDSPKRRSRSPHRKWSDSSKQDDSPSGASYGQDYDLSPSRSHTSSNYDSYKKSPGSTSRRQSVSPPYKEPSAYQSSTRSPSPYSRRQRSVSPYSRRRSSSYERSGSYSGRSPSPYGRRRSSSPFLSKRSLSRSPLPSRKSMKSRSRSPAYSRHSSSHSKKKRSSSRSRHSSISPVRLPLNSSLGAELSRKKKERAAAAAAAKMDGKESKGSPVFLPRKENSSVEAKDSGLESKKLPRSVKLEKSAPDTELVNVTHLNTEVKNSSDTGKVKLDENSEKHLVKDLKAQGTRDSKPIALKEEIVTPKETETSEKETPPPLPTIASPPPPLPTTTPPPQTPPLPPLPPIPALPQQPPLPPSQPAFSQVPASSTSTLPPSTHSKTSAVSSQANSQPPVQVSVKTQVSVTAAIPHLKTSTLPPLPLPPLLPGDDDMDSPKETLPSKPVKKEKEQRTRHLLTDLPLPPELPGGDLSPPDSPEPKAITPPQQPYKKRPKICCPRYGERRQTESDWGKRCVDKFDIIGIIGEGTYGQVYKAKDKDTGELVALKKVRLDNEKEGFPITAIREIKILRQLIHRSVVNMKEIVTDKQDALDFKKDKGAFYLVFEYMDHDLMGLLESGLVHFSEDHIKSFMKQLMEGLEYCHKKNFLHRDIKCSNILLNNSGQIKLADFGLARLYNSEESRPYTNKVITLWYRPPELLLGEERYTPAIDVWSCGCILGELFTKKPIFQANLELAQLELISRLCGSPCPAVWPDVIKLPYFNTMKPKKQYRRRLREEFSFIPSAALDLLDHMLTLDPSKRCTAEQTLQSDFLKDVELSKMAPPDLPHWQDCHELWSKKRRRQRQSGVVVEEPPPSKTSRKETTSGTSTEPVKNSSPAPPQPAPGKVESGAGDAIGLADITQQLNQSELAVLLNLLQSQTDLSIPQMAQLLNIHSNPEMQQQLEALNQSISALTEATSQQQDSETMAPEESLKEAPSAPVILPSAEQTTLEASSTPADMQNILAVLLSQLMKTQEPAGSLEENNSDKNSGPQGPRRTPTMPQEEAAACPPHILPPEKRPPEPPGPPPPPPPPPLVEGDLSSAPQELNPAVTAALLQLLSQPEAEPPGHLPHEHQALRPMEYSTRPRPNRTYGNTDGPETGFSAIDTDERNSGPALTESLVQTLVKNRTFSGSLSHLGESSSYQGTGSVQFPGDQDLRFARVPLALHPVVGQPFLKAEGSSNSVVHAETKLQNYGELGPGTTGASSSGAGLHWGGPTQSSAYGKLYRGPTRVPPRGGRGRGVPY
The next test deals with EPHA5 (UniProt P54756). The settings on record: cell material: Lysate mix. A digest of the protocol:
as §1

In the next test the target is FGFR4 (UniProt P22455). The settings on record: cell material: Lysate mix. Summed up: as §1
The target in another test is EPHA2 (UniProt P29317). The settings on record: cell material: Lysate mix. A digest of the protocol:
as §1

The target in the next test is UniProt P68400. A digest of the protocol: as §1
UniProt P68400, sequence (P68400 whole entry, looked up): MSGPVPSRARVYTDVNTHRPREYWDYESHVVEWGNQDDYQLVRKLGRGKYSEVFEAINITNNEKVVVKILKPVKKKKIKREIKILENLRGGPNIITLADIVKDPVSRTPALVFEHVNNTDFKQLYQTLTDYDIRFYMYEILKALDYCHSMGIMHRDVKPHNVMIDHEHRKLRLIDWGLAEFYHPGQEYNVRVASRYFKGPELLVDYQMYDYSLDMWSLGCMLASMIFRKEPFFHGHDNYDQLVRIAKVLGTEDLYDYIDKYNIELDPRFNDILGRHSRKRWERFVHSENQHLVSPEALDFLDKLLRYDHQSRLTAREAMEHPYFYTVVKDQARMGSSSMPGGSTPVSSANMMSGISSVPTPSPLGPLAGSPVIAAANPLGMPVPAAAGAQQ
The next test has as its target T1, UniProt Q13043.
T1 sequence (whole entry): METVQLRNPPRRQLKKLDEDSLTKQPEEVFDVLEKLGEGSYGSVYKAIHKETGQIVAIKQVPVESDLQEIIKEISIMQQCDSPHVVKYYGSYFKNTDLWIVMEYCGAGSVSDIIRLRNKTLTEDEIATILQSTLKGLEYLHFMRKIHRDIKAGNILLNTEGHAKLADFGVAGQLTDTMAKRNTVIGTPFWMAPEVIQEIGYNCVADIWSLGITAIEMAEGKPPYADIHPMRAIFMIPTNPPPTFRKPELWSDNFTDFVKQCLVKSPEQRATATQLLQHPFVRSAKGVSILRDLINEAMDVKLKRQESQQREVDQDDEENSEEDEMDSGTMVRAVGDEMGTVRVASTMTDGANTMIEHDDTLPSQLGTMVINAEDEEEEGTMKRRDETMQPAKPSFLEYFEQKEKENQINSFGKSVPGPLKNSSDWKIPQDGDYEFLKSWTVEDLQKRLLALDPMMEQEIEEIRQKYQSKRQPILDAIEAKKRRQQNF
Summed up: as §1

For a further test, the target named is UniProt Q9H0K1. A digest of the protocol: as §1
UniProt Q9H0K1, sequence (Q9H0K1 whole entry, looked up): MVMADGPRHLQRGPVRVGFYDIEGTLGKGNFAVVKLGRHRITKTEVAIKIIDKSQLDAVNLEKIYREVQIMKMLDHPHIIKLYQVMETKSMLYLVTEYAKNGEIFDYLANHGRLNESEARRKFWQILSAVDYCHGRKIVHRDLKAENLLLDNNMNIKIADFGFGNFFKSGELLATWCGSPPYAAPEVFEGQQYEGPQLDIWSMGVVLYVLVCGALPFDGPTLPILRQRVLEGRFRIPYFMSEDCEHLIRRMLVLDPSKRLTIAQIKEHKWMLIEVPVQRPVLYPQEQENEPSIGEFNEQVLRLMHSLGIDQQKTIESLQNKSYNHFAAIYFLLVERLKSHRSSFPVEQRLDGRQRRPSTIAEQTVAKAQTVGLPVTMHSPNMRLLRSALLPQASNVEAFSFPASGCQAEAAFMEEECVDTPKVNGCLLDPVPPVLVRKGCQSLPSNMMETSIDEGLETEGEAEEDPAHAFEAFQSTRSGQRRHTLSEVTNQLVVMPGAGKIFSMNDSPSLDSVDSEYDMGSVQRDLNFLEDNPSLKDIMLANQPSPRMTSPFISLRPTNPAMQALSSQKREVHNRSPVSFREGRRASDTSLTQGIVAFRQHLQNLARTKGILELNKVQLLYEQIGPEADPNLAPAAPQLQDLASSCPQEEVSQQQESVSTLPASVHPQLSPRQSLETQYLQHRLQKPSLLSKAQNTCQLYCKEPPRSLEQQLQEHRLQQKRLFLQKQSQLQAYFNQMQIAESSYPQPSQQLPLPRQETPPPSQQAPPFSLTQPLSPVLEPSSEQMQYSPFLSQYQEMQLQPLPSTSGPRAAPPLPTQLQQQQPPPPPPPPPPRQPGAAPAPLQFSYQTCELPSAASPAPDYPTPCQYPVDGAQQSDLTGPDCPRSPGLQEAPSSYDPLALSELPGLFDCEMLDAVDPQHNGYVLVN
The target in a further test is T2, MAP3K15 (UniProt Q6ZN16).
T2 sequence (whole entry): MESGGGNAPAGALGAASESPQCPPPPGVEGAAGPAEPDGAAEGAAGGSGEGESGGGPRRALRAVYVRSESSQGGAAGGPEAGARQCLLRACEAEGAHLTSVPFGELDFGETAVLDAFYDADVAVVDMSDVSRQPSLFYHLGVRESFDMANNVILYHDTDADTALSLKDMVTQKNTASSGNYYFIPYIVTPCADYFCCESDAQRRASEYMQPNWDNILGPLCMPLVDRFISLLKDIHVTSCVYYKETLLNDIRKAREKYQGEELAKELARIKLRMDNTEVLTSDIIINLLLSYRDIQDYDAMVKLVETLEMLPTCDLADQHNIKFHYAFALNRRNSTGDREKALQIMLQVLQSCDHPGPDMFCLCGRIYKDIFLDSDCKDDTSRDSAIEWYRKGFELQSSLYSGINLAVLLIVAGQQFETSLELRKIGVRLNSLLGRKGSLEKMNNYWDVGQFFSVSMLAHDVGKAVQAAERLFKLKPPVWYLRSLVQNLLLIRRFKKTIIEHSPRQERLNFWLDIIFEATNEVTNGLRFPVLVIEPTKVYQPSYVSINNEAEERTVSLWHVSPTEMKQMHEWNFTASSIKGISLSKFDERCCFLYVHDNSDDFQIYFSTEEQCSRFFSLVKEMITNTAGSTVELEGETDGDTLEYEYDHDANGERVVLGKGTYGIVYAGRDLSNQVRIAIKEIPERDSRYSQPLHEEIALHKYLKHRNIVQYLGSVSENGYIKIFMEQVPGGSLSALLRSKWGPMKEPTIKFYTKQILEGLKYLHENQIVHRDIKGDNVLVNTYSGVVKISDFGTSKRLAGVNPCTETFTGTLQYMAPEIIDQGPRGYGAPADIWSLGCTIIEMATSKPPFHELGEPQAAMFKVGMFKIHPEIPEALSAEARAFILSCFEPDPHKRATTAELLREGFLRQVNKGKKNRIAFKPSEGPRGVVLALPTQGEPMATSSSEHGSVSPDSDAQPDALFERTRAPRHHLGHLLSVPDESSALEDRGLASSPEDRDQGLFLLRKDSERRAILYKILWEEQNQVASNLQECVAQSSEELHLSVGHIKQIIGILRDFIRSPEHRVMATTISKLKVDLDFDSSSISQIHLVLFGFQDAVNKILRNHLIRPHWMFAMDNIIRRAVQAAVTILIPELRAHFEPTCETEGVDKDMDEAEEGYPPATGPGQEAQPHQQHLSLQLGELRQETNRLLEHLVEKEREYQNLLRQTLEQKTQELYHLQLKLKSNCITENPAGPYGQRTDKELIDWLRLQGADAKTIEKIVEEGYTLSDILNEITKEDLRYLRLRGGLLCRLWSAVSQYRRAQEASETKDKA
The settings on record: cell material: Lysate mix. A digest of the protocol: as §1

The target of another test is T3, PHKG2 (UniProt P15735).
T3 sequence (whole entry): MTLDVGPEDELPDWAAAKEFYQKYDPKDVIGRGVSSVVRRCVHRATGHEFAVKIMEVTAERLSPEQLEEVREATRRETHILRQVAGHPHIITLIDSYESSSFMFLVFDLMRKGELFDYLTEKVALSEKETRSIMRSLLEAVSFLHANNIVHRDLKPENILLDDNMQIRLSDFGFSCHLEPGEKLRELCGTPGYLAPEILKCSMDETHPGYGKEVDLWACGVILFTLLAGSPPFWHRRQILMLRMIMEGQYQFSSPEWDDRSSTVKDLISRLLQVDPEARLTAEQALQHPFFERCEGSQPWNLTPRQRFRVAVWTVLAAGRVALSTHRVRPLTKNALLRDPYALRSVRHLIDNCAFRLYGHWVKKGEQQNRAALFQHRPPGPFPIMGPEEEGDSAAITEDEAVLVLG
A digest of the protocol: as §1

EPHA2, sequence (P29317 whole entry): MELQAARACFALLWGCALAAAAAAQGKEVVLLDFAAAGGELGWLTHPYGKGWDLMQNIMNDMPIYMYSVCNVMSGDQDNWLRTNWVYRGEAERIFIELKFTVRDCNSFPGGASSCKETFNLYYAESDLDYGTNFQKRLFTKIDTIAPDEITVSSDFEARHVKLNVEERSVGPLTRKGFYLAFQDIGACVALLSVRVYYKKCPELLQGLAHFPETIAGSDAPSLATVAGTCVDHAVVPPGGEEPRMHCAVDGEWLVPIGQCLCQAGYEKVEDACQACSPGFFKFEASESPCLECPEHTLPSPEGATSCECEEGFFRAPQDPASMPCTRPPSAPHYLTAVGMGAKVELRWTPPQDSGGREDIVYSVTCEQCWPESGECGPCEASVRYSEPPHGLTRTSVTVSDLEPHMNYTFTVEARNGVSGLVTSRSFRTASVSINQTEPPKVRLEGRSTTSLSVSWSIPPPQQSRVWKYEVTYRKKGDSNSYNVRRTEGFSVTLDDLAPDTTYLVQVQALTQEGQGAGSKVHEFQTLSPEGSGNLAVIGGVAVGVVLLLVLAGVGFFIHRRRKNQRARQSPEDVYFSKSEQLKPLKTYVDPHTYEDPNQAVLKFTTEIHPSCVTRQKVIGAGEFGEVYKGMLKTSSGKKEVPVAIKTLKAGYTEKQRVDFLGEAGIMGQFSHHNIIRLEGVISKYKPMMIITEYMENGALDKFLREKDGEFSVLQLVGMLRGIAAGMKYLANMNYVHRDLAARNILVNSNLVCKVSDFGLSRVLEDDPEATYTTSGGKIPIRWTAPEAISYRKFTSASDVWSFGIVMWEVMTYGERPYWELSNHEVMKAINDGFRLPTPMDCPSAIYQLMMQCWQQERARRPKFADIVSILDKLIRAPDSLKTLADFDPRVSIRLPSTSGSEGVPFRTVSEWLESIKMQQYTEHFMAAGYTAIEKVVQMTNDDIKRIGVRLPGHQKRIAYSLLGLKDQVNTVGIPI
EPHA5, sequence (P54756 whole entry): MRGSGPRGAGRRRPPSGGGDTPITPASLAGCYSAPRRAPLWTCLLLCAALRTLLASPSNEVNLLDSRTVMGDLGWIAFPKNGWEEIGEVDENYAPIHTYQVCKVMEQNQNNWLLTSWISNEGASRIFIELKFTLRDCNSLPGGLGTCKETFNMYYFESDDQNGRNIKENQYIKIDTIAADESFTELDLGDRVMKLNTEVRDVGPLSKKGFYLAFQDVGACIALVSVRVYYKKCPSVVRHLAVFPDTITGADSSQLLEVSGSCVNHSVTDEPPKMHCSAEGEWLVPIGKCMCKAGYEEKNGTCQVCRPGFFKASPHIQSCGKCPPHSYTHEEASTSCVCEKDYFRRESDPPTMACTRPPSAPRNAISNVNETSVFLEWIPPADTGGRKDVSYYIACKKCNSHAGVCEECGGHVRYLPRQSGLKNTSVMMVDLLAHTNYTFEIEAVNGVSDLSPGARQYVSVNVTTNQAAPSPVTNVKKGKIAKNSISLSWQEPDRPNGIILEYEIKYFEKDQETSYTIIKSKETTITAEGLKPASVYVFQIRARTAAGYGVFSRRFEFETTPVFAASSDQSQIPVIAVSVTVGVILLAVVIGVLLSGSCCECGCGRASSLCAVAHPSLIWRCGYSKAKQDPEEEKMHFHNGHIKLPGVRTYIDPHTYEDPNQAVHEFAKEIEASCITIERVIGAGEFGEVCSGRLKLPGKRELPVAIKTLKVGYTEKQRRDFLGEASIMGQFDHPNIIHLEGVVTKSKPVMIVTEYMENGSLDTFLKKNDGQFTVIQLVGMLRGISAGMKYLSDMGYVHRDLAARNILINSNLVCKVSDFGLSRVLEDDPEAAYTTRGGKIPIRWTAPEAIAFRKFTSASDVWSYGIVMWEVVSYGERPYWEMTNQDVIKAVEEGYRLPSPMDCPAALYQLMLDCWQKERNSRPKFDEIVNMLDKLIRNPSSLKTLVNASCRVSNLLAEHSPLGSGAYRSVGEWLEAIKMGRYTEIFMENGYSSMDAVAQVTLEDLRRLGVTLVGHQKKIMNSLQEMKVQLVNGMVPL

Regarding `Cc1cc(Nc2cc(C(=O)NCCNC(=O)OC3CC/C=C/CCC3)nc(N3CCN(Cc4ccc(S(=O)(=O)F)cc4)CC3)n2)n[nH]1` (stereo not given), the pIC50 at MAP4K4 (cell material: Lysate mix), at UniProt P48730 (cell material: Lysate mix), on UniProt Q05397 (cell material: Lysate mix), on UniProt Q9NYV4 (cell material: Lysate mix), at EPHA5 and at FGFR4 was less than 4.52 each time. Besides, the pIC50 on EPHA2 was less than 4.52; at UniProt P68400 (cell material: Lysate mix) it was less than 4.52; at UniProt Q13043 (cell material: Lysate mix), 4.74; on UniProt Q9H0K1 (cell material: Lysate mix), less than 4.52; on MAP3K15, less than 4.52; at PHKG2 (cell material: Lysate mix) it was less than 4.52.
Turning to `C#CCNC(=O)c1cc(Nc2cc(C3CC3)[nH]n2)nc(N2CCN(Cc3ccc(S(=O)(=O)F)cc3)CC2)n1`, the pIC50 on MAP4K4 (cell material: Jurkat cells) is 5.9; on MAP4K4 (cell material: Jurkat lysate), less than 4.52; at UniProt P48730 (cell material: Jurkat lysate), less than 4.52; at UniProt P48730 (cell material: Lysate mix), less than 4.52; at UniProt Q05397 (cell material: Jurkat cells), less than 4.52; at UniProt Q05397 (cell material: Jurkat lysate), less than 4.52. The negative-log IC50 (pIC50) at UniProt Q05397 (cell material: Lysate mix) was less than 4.52; at UniProt Q9NYV4 (cell material: Jurkat cells), 6.33; on UniProt Q9NYV4 (cell material: Lysate mix), 5.34; at EPHA5, less than 4.52; at FGFR4 it was less than 4.52; at EPHA2, less than 4.52. Besides, the pIC50 on UniProt P68400 (cell material: Jurkat cells) was 5.62; at UniProt P68400 (cell material: Jurkat lysate), less than 4.52; at UniProt P68400 (cell material: Lysate mix) it was 5.02; on UniProt Q13043 (cell material: Jurkat cells), 6.35; on UniProt Q13043 (cell material: Jurkat lysate) it was 5.89; at UniProt Q13043 (cell material: Lysate mix), 6.8. In addition, the pIC50 is 6.22 at UniProt Q9H0K1 (cell material: Jurkat cells); less than 4.52 on UniProt Q9H0K1 (cell material: Jurkat lysate); less than 4.52 at UniProt Q9H0K1 (cell material: Lysate mix); less than 4.52 at MAP3K15; 5.16 at PHKG2 (cell material: Jurkat cells); less than 4.52 at PHKG2 (cell material: Jurkat lysate). The pIC50 on PHKG2 (cell material: Lysate mix) is less than 4.52.
With `CCNC(=O)c1cc(Nc2cc(C3CC3)[nH]n2)nc(N2CCN(Cc3ccc(S(=O)(=O)F)cc3)CC2)n1`, the pIC50 on MAP4K4 (cell material: Lysate mix) was less than 4.52; on UniProt P48730 (cell material: Lysate mix) it was less than 4.52; at UniProt Q05397 (cell material: Lysate mix) it was less than 4.52; at UniProt Q9NYV4 (cell material: Lysate mix), 4.9; at EPHA5, less than 4.52; on FGFR4, less than 4.52. The pIC50 at EPHA2 is less than 4.52; on UniProt P68400 (cell material: Lysate mix), 5.39; on UniProt Q13043 (cell material: Lysate mix), 6.06; on UniProt Q9H0K1 (cell material: Lysate mix), less than 4.52; on MAP3K15, less than 4.52; at PHKG2 (cell material: Lysate mix), less than 4.52.
For `C#CCNC(=O)c1cc(Nc2cc(C)[nH]n2)nc(N2CCN(Cc3ccc(S(=O)(=O)F)cc3)CC2)n1`, the pIC50 at MAP4K4 (cell material: Lysate mix), on UniProt P48730 (cell material: Lysate mix), at UniProt Q05397 (cell material: Lysate mix), on UniProt Q9NYV4 (cell material: Lysate mix), on EPHA5 and on FGFR4 was less than 4.52 each time. Besides, the pIC50 is less than 4.52 on EPHA2; 4.89 on UniProt P68400 (cell material: Lysate mix); 5.98 on UniProt Q13043 (cell material: Lysate mix); less than 4.52 at UniProt Q9H0K1 (cell material: Lysate mix); 4.92 at MAP3K15; less than 4.52 at PHKG2 (cell material: Lysate mix).
As to `O=C(NCCNC(=O)c1cc(Nc2cc(C3CC3)[nH]n2)nc(N2CCN(Cc3ccc(S(=O)(=O)F)cc3)CC2)n1)OC1CC/C=C/CCC1` (stereo not given), the pIC50 is 5.15 on MAP4K4 (cell material: Jurkat cells); less than 4.52 at MAP4K4 (cell material: Jurkat lysate); less than 4.52 at MAP4K4 (cell material: Lysate mix); less than 4.52 on UniProt P48730 (cell material: Jurkat cells); less than 4.52 at UniProt P48730 (cell material: Jurkat lysate); less than 4.52 at UniProt P48730 (cell material: Lysate mix). Also, the pIC50 on UniProt Q05397 (cell material: Jurkat cells) is less than 4.52; at UniProt Q05397 (cell material: Jurkat lysate), less than 4.52; on UniProt Q05397 (cell material: Lysate mix), less than 4.52; on UniProt Q9NYV4 (cell material: Jurkat cells), 5.85; at UniProt Q9NYV4 (cell material: Jurkat lysate), less than 4.52; at UniProt Q9NYV4 (cell material: Lysate mix), less than 4.52. Moreover, the pIC50 is less than 4.52 at EPHA5; less than 4.52 on FGFR4; less than 4.52 at EPHA2; less than 4.52 at UniProt P68400 (cell material: Jurkat lysate); less than 4.52 on UniProt P68400 (cell material: Lysate mix); 5.98 on UniProt Q13043 (cell material: Jurkat cells). In addition, the pIC50 on UniProt Q13043 (cell material: Jurkat lysate) was 4.72; on UniProt Q13043 (cell material: Lysate mix), 4.99; at UniProt Q9H0K1 (cell material: Jurkat cells), 5.62; at UniProt Q9H0K1 (cell material: Jurkat lysate), less than 4.52; on UniProt Q9H0K1 (cell material: Lysate mix) it was less than 4.52; on MAP3K15, less than 4.52. Further, the pIC50 at PHKG2 (cell material: Jurkat cells), at PHKG2 (cell material: Jurkat lysate) and on PHKG2 (cell material: Lysate mix) was less than 4.52 each time.
As to `CCNC(=O)c1cc(Nc2cc(C)[nH]n2)nc(N2CCN(Cc3ccc(S(=O)(=O)F)cc3)CC2)n1`, the pIC50 at MAP4K4 (cell material: Lysate mix), on UniProt P48730 (cell material: Lysate mix), at UniProt Q05397 (cell material: Lysate mix), on UniProt Q9NYV4 (cell material: Lysate mix), at EPHA5 and at FGFR4 was less than 4.52 each time. Besides, the pIC50 on EPHA2 is less than 4.52; at UniProt P68400 (cell material: Lysate mix), 5.15; at UniProt Q13043 (cell material: Lysate mix), 5.8; on UniProt Q9H0K1 (cell material: Lysate mix), less than 4.52; on MAP3K15, 4.94; at PHKG2 (cell material: Lysate mix) it was less than 4.52.

The pIC50 is the negative decadic logarithm of the IC50, by convention in mol/L. A lower pIC50 goes with a high IC50.
